According to patent US20200069592A1, “HSP90 INHIBITOR ORAL FORMULATIONS AND RELATED METHODS” (Samus Therapeutics, Inc., priority 2017, published 2020):
Like-named read-outs stand apart in the source and are kept apart here.

How the values were obtained:
[1] = Particle size distribution (Cilas 1180) of as-received and jet milled API (Example 8); type: physicochemical
Method: Compound 2 API ‘as-received’ (Lots #2064-118-8, #2064-146-9, and # BPR-WS 1828-194D(2HCl)—B1-19) were analyzed for PSD on a Cilas 1180 particle size analyzer. Subsequently jet milled API batches B # L0441-20-JM51mmP1, B # L0441-20-JM51mmP2, B # L0441-20-JM51mmP3, and B # L0441-84-JM146mmP1 were also analyzed for PSD Approximately 50 mg Compound 2-2HCl was dispersed into 40 mL 0.2% (w/w) span 80 in n-hexanes (dispersant) and allowed to mix for 60 minutes. API was kept suspended in dispersant via stirring and sonication during test.
A jet milling study was performed on a batch of Compound 2 2HCl with jet mill Fluid Energy Asset #00170 outfitted with a 51 mm collection loop. Batches B # L0441-29-JM51mmP1, B # L0441-29-JM51mmP2, and B # L0441-29-JM51mmP3 were created from ˜10 g of Compound 2 lot # BPR-WS1828-194D(2HCl)-B1-19 subjected to 3 passes. Jet mill settings for grinder nozzle and pusher nozzle as follows: Pass 1 grinder nozzle=60 psi & pusher nozzle=80 psi, Pass 2 and 3 grinder nozzle=50 psi & pusher nozzle=70 psi.
After successfully jet milling on the R&D scale, B # L0441-84-JM146mmP1 was created from Compound 2-2HCl lot # BPR-17-87-B1-21d which was processed with a single pass to confirm GMP scale up conditions in the R&D laboratory by passing 85 g through the GMP jet mill Jet-O-Mizer Asset #01 16 Model 0101 outfitted with 146 mm collection loop using a standard nylon 4×48-inch collection sock inside a PTFE 4×48-inch sock to minimize fines loss. The pressure settings for the grinder and pusher nozzle were: Grinder nozzle 60 psi, Pusher nozzle 70 psi.

[2] = female, Sprague Dawley, rat, in vivo, po
Method: (§1) The animals used in this study were female Sprague Dawley Rats physiologically normal. At the time of receipt, mice were 200-225 g in weight. […] Ninety-four total animals were observed thereafter. The parenteral administration is performed by tail vein injection.
(§2) Compound 2 was provided in free base form and stored at −20° C., protected from light. Compound 2 was formulated in dosage form immediately prior to use. For oral administration of Compound 2 in ORA-Plus® drinking solution, Compound 2 was suspended in drinking solution ORA-Plus® (Perrigo; Minneapolis, Minn.). First, a mortar and pestle were used to smooth out the Compound 2 powder, then a small amount of ORA-Plus® was added, and next, the mixture was triturated to a thick, smooth paste. The remainder of the ORA-Plus® was added by geometric dilution. The Compound 2 free base and ORA-Plus® mixture was dispensed in a tight, light resistant amber bottle with appropriate labeling. This mixture was shaken well before using, protected from light and kept refrigerated if dosing was delayed. For oral administration of Compound 2 in citric acid buffer with Captisol®, Compound 2 free base powder was dissolved or suspended into 30% Captisol® (Cydex Pharmaceuticals; Lawrence, Kans.) in 60 mM citrate buffer (pH˜4.2) (citric acid and sodium citrate dehydrate (Sigma-Aldrich; St. Louis Mo.)) in sterile water) to each group's working concentration. […] A magnetic stir-bar was used to mix dosing solution, followed by sonication. For intravenous administration, Compound 2 free base powder was dissolved into 15% Captisol® in 5 mM citrate buffer (pH˜4.2) to each group's working concentration. A magnetic stirbar was used to mix dosing solution, followed by sonication. IV dosing solution of Compound 2 free base was filtered with a 0.2 m PVDF filter (Pall Life Sciences; Port Washington, N.Y.) prior to administration.
(§3) Dose levels of Compound 1 were based on the free base, not the salt.
(§4) Animals were randomized using random equilibration of body weights on Day 1 into one of 19 study groups, as shown in Table 23 (Groups 1-19), with 5 animals in each group, except for the 4 animals in Group 19. Body weights were collected Days 1, 2, 3, and/or 4 to accommodate data collection of staggered groups. Gross observations of body weight were noted during the course of the study.

[3] = Plasma pharmacokinetics after single PO or IV administration (Example 5), LC-MS/MS; details: female, Sprague-Dawley, rat, plasma, dosed as 2HCl; for AUC(0-t): AUC0-last (hr*ng/mL) Mean ± StdDev; for Cmax: Cmax (ng/mL) Mean ± StdDev; for Tmax: Tmax (hr) Mean ± StdDev
Method: as §1, §2, §3, §4

[4] = after jet milling, 51 mm collection loop
[5] = iv, 12 mg/kg, Group 18: 12 mg/kg IV, 0.9% Saline
[6] = iv, 24 mg/kg, Group 19: 24 mg/kg IV, 0.9% Saline
[7] = po, 24 mg/kg, Group 11: 24 mg/kg PO, ORA-Plus, single dose
[8] = po, 36 mg/kg, Group 12: 36 mg/kg PO, ORA-Plus
[9] = po, 36 mg/kg, Group 15: 36 mg/kg PO, 0.5% Methylcellulose in water
[10] = po, 48 mg/kg, Group 13: 48 mg/kg PO, ORA-Plus
[11] = po, 48 mg/kg, Group 16: 48 mg/kg PO, 0.5% Methylcellulose in water
[12] = po, 60 mg/kg, Group 14: 60 mg/kg PO, ORA-Plus
[13] = po, 60 mg/kg, Group 17: 60 mg/kg PO, 0.5% Methylcellulose in water

Structure (SMILES): CC(C)(C)CNCCn1c(Sc2cc3c(cc2I)OCO3)nc2c(N)ncnc21 [B #132-L0441-20-JM51mmP2]
- Particle size d10 [1, 4]: 2.3 μm
- Particle size d50 [1, 4]: 5.6 μm
- Particle size d90 [1, 4]: 11.7 μm
- Particle size span [1, 4]: 9.4 μm
- Particle size d90 ([1]; as quoted for the batches used in Example 9, listed as B # L0441-20-JM51mmP2): 11 um

Structure (SMILES): CC(C)(C)CNCCn1c(Sc2cc3c(cc2I)OCO3)nc2c(N)ncnc21 [B #132-L0441-20-JM51mmP3]
- Particle size d10 [1, 4]: 2.0 μm
- Particle size d50 [1, 4]: 4.8 μm
- Particle size d90 [1, 4]: 10.1 μm
- Particle size span [1, 4]: 8.1 μm

Structure (SMILES): CC(C)(C)CNCCn1c(Sc2cc3c(cc2I)OCO3)nc2c(N)ncnc21 [B #132-L0441-20-JM51mmP1]
- Particle size d10 [1, 4]: 3.1 μm
- Particle size d50 [1, 4]: 7.9 μm
- Particle size d90 [1, 4]: 17.3 μm
- Particle size span [1, 4]: 14.2 μm
- Particle size d90 ([1]; as quoted for the batches used in Example 9, listed as B # L0441-20-JM51mmP1): 17 um

Structure (SMILES): CC(C)NCCCn1c(Sc2cc3c(cc2I)OCO3)nc2c(N)ncnc21 [Compound 1]
- % AUC0-last ORA vs methylcellulose Mean ± StdDev ([2]; 36 mg/kg): 119.11 ± 45.91%
- % Cmax ORA vs methylcellulose Mean ± StdDev ([2]; 36 mg/kg): 118.75 ± 64.56%
- % AUC0-last ORA vs methylcellulose Mean ± StdDev ([2]; 48 mg/kg): 111.81 ± 69.18%
- % Cmax ORA vs methylcellulose Mean ± StdDev ([2]; 48 mg/kg): 89.30 ± 37.98%
- % AUC0-last ORA vs methylcellulose Mean ± StdDev ([2]; 60 mg/kg): 70.33 ± 23.05%
- % Cmax ORA vs methylcellulose Mean ± StdDev ([2]; 60 mg/kg): 66.16 ± 17.44%
- AUC(0-t) [3, 5]: 2470 ± 573 ng·h/mL
- Cmax [3, 5]: 1280 ± 325 ng/mL
- Tmax [3, 5]: 0.25 h
- AUC(0-t) [3, 6]: 5500 ± 2800 ng·h/mL
- Cmax [3, 6]: 2080 ± 79.3 ng/mL
- Tmax [3, 6]: 0.31 ± 0.13 h
- AUC(0-t) [3, 7]: 2700 ± 462 ng·h/mL
- Cmax [3, 7]: 807 ± 214 ng/mL
- Tmax [3, 7]: 2 h
- AUC(0-t) [3, 8]: 3220 ± 870 ng·h/mL
- AUC(0-t) [3, 9]: 2850 ± 919 ng·h/mL
- Cmax [3, 8]: 853 ± 193 ng/mL
- Cmax [3, 9]: 812 ± 270 ng/mL
- Tmax [3, 8]: 2 h
- Tmax [3, 9]: 2.2 ± 1.1 h
- AUC(0-t) [3, 10]: 6500 ± 2030 ng·h/mL
- AUC(0-t) [3, 11]: 6500 ± 1690 ng·h/mL
- Cmax [3, 10]: 1420 ± 470 ng/mL
- Cmax [3, 11]: 1650 ± 271 ng/mL
- Tmax [3, 10]: 2.4 ± 0.89 h
- Tmax [3, 11]: 1.4 ± 0.55 h
- AUC(0-t) [3, 12]: 4870 ± 1420 ng·h/mL
- AUC(0-t) [3, 13]: 7320 ± 2440 ng·h/mL
- Cmax [3, 12]: 1120 ± 175 ng/mL
- Cmax [3, 13]: 1760 ± 458 ng/mL
- Tmax [3, 12]: 3 ± 2 h
- Tmax [3, 13]: 1.5 ± 0.71 h
